Data reported in US11214803B2, “Modulators of YAP1 expression” (Ionis Pharmaceuticals, Inc., priority 2019, dated 2022).
Strand notation (5' to 3'): a small letter for the sugar, then the base; units joined by * are phosphorothioate-linked, units joined directly phosphodiester-linked; [ ] holds rarer units or linkages, { } end groups; capitals alone tell only the bases. k = constrained ethyl (cEt); [5mC] = 5-methylcytosine; d = 2'-deoxy (DNA)

How the values were obtained:
[1] = test system: Yap1 mRNA; experiment: Inhibition of human Yap1 mRNA in SNU449 hepatocellular carcinoma xenograft tumors (Example 26); type: in vivo; conditions: SNU449 xenografts in NSG mice, 50 mg/kg twice weekly for five days, relative to PBS treated animals
Procedure, shortened: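 Female NSG mice bearing subcutaneous SNU449 xenografts (about 100 mm^3) dosed with modified oligonucleotides at 50 mg/kg twice weekly for five days, four per group. Tumour Yap1 mRNA measured by RT-qPCR, normalized to actin-beta, expressed as % of PBS-treated controls.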

[2] = test system: Yap1 mRNA; experiment: Dose-dependent inhibition of human Yap1 in A-431 cells (Example 24, 11,000 cells per well, RTS36584, normalized to GAPDH); type: cell-based; conditions: free uptake, 48 hours; for Yap1 mRNA, % UTC: RTS36584, normalized to GAPDH; for IC50: linear regression on a log/linear plot
Description: Modified oligonucleotides described in the studies above were tested at various doses in A-431 cells. Cultured A-431 cells at a density of 11,000 cells per well were treated using free uptake with modified oligonucleotides diluted to concentrations described in the tables below. After approximately 48 hours, Yap1 mRNA levels were measured as previously described using the Human Yap1 primer-probe set RTS36584. Yap1 mRNA levels were normalized to GAPDH content, as measured by primer probe set RTS104 (forward sequence […], designated herein as SEQ ID NO.: 17; reverse sequence […], designated herein as SEQ ID NO.: 18; probe sequence […], designated herein as SEQ ID NO.: 19). Results are presented in the tables below as percent control of the amount of Yap1 mRNA relative to untreated control cells (% UTC). IC50s were calculated using a linear regression on a log/linear plot of the data in excel.

[3] = test system: Yap1 mRNA; experiment: Yap1 mRNA in SCC25 cells, RNA analysis (Example 25); type: cell-based, human; conditions: free uptake, 48 hours, RTS4814, normalized to actin-beta
Description: (§1) Modified oligonucleotides described in the studies above were tested at various doses in squamous cell carcinoma cell SCC25. A control oligonucleotide 792169 (a 3-10-3 cET gapmer with a full phosphorothioate backbone, […], designated herein as SEQ ID No.: 2940; is not complementary to any known human gene) was also tested.
Cultured SCC25 cells at a density of 5,000 cells per well were treated using free uptake with modified oligonucleotides diluted to concentrations described in the tables below. After approximately 48 hours, Yap1 mRNA levels were measured as previously described using the Human Yap1 primer-probe set RTS4814. Yap1 mRNA levels were normalized to actin-beta content, as measured by primer probe set RTS5002 (forward sequence […], designated herein as SEQ ID NO.: 20; reverse sequence […], designated herein as SEQ ID NO.: 21; probe sequence […], designated herein as SEQ ID NO.: 22). Results are presented in the tables below as percent control of the amount of Yap1 mRNA relative to untreated control cells (% UTC).

[4] = test system: SCC25 cells; experiment: Cell proliferation assay in SCC25 cells, CellTiter-Glo (Example 25); type: cell-based, human; conditions: free uptake, 144 hours
Description: as §1
Cultured SCC25 cells at a density of 1,000 cells/well were treated using free uptake with modified oligonucleotides diluted to concentrations described in the tables below. After approximately 144 hours, cell proliferation was measured using the luminescent cell viability CellTiter-Glo® 2.0 Assay (Promega). Results are presented in the tables below as percent control of the amount of luminescence in samples treated with modified oligonucleotides relative to untreated control cells (% UTC).

[5] = Cynomolgus monkey tolerability, pro-inflammatory proteins analysis, Complement C3 and CRP (Example 34); type: in vivo; conditions: cynomolgus monkeys, 35 mg/kg subcutaneously; for CRP: day 44
Description: To evaluate any inflammatory effect of Ionis oligonucleotides in cynomolgus monkeys, blood samples were taken for analysis. The monkeys were fasted overnight prior to blood collection. On day 42 (pre-dose and 24 hours post-dose), approximately 0.8 mL of blood was collected from each animal and put into tubes without anticoagulant for serum separation. […] Complement C3 were measured using a Toshiba 120 FR NEO chemistry analyzer (Toshiba Co., Japan). […] Another marker of inflammation, C-Reactive Protein (CRP) was tested together with the clinical chemistry parameters tested for liver function above.

[6] = cynomolgus monkey, in vivo, sc, 35 mg/kg
Description: (§2) Prior to the study, the monkeys were kept in quarantine during which the animals were observed daily for general health. The monkeys were 2-4 years old and weighed 2-4 kg. Eleven groups of 4 randomly assigned male cynomolgus monkeys each were injected subcutaneously with Ionis oligonucleotide or saline in a clock-wise rotation between four different sites on the back. Following loading doses on days 1, 3, 5 and 7, the monkeys were dosed once per week (on days 14, 21, 28, 35, and 42) with 35 mg/kg of Ionis oligonucleotide.
To evaluate the effect of Ionis oligonucleotides on hepatic and kidney function, blood samples were collected from all the study groups on day 44. The monkeys were fasted overnight prior to blood collection. Blood was collected in tubes without anticoagulant for serum separation. The tubes were kept at room temperature for a minimum of 90 minutes and then centrifuged at 3000 rpm for 10 minutes to obtain serum. Levels of various liver function markers were measured using a Toshiba 200FR NEO chemistry analyzer (Toshiba Co., Japan).

[7] = Cynomolgus monkey tolerability, urine analysis (Example 34); conditions: cynomolgus monkeys, 35 mg/kg subcutaneously, day 44
Description: as §2
Food was removed overnight the day before fresh urine collection, but water was supplied. Fresh urine samples for urinalysis and urine chemistry were collected from all animals using a clean cage pan on wet ice (first in the morning) on day 44. Urinalysis/Urine Chemistry parameters creatinine (UCRE), microprotein (UTP), urine microalbumin (UALB), and protein/creatinine (P/C) ratio were measured using a Toshiba 120FR automated chemistry analyzer (Toshiba Co., Japan).

[8] = Tolerability in Sprague-Dawley rats, plasma chemistry markers (Example 22); type: in vivo; conditions: male Sprague-Dawley rats, 50 mg/kg s.c. weekly for 6 weeks (7 doses), 48 hours after last dose
Description: Sprague-Dawley rats are a multipurpose model used for safety and efficacy evaluations. The rats were treated with Ionis modified oligonucleotides from the studies described in the Examples above and evaluated for changes in the levels of various plasma chemistry markers.

[9] = Tolerability in Sprague-Dawley rats, body and organ weights (Example 22); type: in vivo; conditions: male Sprague-Dawley rats, 50 mg/kg s.c. weekly for 6 weeks (7 doses)
Description: Terminal body weight was measured prior to necropsy. Ionis oligonucleotides that caused any changes in organ weights outside the expected range for modified oligonucleotides were excluded from further studies.

| Substance | Yap1 mRNA in tumors, % control [1] [% control] | Yap1 mRNA, % UTC ([2]; 0.002 μM) [% UTC] | Yap1 mRNA, % UTC ([2]; 0.008 μM) [% UTC] | Yap1 mRNA, % UTC ([2]; 0.04 μM) [% UTC] | Yap1 mRNA, % UTC ([2]; 0.2 μM) [% UTC] | Yap1 mRNA, % UTC ([2]; 1 μM) [% UTC] | Yap1 mRNA, % UTC ([3]; 0.04 μM) [% UTC] | Yap1 mRNA, % UTC ([3]; 0.2 μM) [% UTC] | Yap1 mRNA, % UTC ([3]; 1 μM) [% UTC] | Yap1 mRNA, % UTC ([3]; 5 μM) [% UTC] | cell proliferation (luminescence) % UTC ([4]; 0.04 μM) [% UTC] | cell proliferation (luminescence) % UTC ([4]; 0.2 μM) [% UTC] | cell proliferation (luminescence) % UTC ([4]; 1 μM) [% UTC] | cell proliferation (luminescence) % UTC ([4]; 5 μM) [% UTC] | Complement C3 ([5]; Day 42 (pre-dose)) [mg/dL] | Complement C3 ([5]; day 42 (24 hr post-dose)) [mg/dL] | CRP [5] [mg/L] | A/G ratio [6] | UALB [7] [mg/dL] | UCRE [7] [mg/dL] | other results |
| --- | --- | --- | --- | --- | --- | --- | --- | --- | --- | --- | --- | --- | --- | --- | --- | --- | --- | --- | --- | --- | --- |
| 715487 (kA*kT*kT*dA*d[5mC]*dT*dT*d[5mC]*dA*dT*dA*dG*d[5mC]*kT*kT*kA) [compound 715487] | 61 | – | – | – | – | – | – | – | – | – | – | – | – | – | – | – | – | – | – | – | – |
| 1076453 (GTAATATTGCAATCTG; 3-10-3 cEt gapmer, further chemistry not given here) [compound 1076453] | 56 | 0 | 1 | 23 | 74 | 89 | 59 | 21 | 7 | 3 | 81 | 40 | 23 | 15 | 101 | 88 | 1.5 | 1.3 | 0.1 | 50 | UTP [7]: 14 mg/dL |
| 1197270 (TTAAAGTGTATGTCAG; cEt gapmer with 2'-OMe nucleoside, phosphorothioate, further chemistry not given here) [compound 1197270] | 54 | 0 | 2 | 26 | 80 | 99 | 48 | 24 | 12 | 7 | 75 | 40 | 22 | 14 | 103 | 86 | 9.8 | 1.2 | 1.3 | 56 | ALT [8]: 84 U/L; AST [8]: 120 U/L; BUN [8]: 24 mg/dL; TBIL [8]: 0.19 mg/dL; Kidney weight ([9]; end of study): 3.6 g; Liver weight ([9]; end of study): 15 g; Spleen weight ([9]; end of study): 2.0 g; body weight ([9]; terminal, prior to necropsy): 374 g; IC50 [2]: 0.02 µM; UTP [7]: 18 mg/dL |
| 1198440 (AAGTGTATGTCAGAAG; cEt, 2'-MOE, 5-methylcytosine, phosphorothioate modifications, further chemistry not given here) [compound 1198440] | 51 | 0 | 1 | 14 | 69 | 96 | 39 | 14 | 5 | 3 | 73 | 33 | 22 | 16 | 95 | 88 | 4.8 | 1.4 | 0.2 | 53 | IC50 [2]: 0.02 µM; UTP [7]: 13 mg/dL |
| CGCCGATAAGGTACAC (cEt gapmer, phosphorothioate backbone, further chemistry not given here) [ION 792169, reference compound] | – | – | – | – | – | – | 96 | 89 | 93 | 98 | 103 | 104 | 100 | 88 | – | – | – | – | – | – | – |
| 1198439 (AGTGTATGTCAGAAGA; sugar, 5-methylcytosine, phosphorothioate modifications, further chemistry not given here) [compound 1198439] | 51 | 0 | 1 | 11 | 65 | 93 | 35 | 12 | 5 | 3 | 62 | 30 | 22 | 16 | 99 | 94 | 2.9 | 1.4 | 0.1 | 68 | IC50 [2]: 0.02 µM; UTP [7]: 15 mg/dL |
| 958499 (ATTAGAGTATGTGGCA; 3-10-3 cEt gapmer, further chemistry not given here) [compound 958499] | 54 | 1 | 3 | 28 | 91 | 117 | 47 | 22 | 10 | 4 | 76 | 42 | 25 | 14 | 112 | 89 | 9.9 | 1.3 | 0.1 | 60 | IC50 [2]: 0.03 µM; UTP [7]: 16 mg/dL |
